Data on 1 compound can be found in patent US20170189357A1, “METHODS OF LIMITING MORBIDITY IN HEMOGLOBINOPATHIES” (DUKE UNIVERSITY, priority 2014, published 2017).

Assay type in all cases: cell-based, human
For assay [1], the system named is p60-c-Src. Kind of assay: p60-c-Src phosphorylation in SSRBCs (Western blot of membrane ghosts). The note with it: 1 μM inhibitor before 1 μg/ml PTx; p<0.0001. The text has this:
(§1) FIG. 10 is a set of figures showing inhibition of Gai protein increased phosphorylation of p72^syk and p60-c-Src tyrosine kinases in intact SSRBCs. FIG. 10A-FIG. 10G show the kinase expression results for twenty μg of membrane protein ghosts (SSRBC ghosts, n=7, SS1, SS2, SS3, SS4, SS5, SS6 and SS7; and normal RBC ghosts, n=7, AA1, AA2, AA3AA4, AA5, AA6 and AA7) were used per lane. FIG. 10A-FIG. 10D show Western blots and corresponding graphs showing the kinase expression results of protein ghosts which were stained with antibodies against phosphorylated p60-c-Src [p-p60-c-Src (SS1, SS2, SS3, SS4; and AA1, AA2, AA3, AA4)] and p60-c-Src [p60-c-Src (SS1, SS2, SS3, SS4, SS5, SS6, SS7, and AA1, AA2, AA3, AA4, AA5, AA6, AA7)]; and phosphorylated p72^syk [p-Syk (SS1, SS2, SS3, SS4; and AA1, AA2, AA3, AA4)] and p72^syk[Syk (SS1, SS2, SS3, SS4, SS5, SS6, SS7; and AA1, AA2, AA3, AA4, AA5, AA6, AA7)]. Antibody against glycophorin C was used as a loading control. FIG. 10C and FIG. 10D show the quantitative analysis of the data presented as relative kinase expression [SSRBCs (n=7) and AARBCs (n=7)], and as relative kinase phosphorylation [SSRBCs (n=4) and AARBCs (n=4)]. […] Quantitative analysis of the data (normalized according to total kinase expression) is presented as fold change in p60-c-Src phosphorylation (FIG. 10E and FIG. 10F) and Syk phosphorylation (FIG. 10G). […]
On the technique in general: A western blot detects proteins with antibodies after separation by electrophoresis.

The subject of assay [2] is p60-c-Src. Kind of assay: p60-c-Src phosphorylation in normal RBCs (Western blot). The note with it: 1 μM PP1; normal RBCs by context (FIG. 10F).
Text: as §1

Assay [3] concerns SSRBCs. Kind of assay: SSRBC adhesion to HUVECs after PTx/CTx treatment, with or without tyrosine kinase inhibitors, intermittent flow. The note with it: 1 μM inhibitor before 1 μg/ml PTx, shear stress 2 dynes/cm^2, p<0.01. As for the experimental part:
FIG. 9 is a set of figures showing that activation of Gas protein increased SSRBC adhesion to endothelial cells via activation of tyrosine kinases. FIG. 9A is a schematic depiction of GPCR pathways along with inhibitors and stimuli of the kinases of these pathways regulating SSRBC adhesion. FIGS. 9B-E are a set of graphs showing adherence of RBCs which were sham-treated, or treated with Pertussis toxin (PTx) (0.5, 1 or 2 μg/ml) (FIGS. 9B-D), 1 μg/ml Cholera toxin (CTx) (FIG. 9B) or phenylarsine oxide (0.1, 10, 20, 40 and 80 μM) (FIG. 9E), or pretreated with 1 μM PP1, 1 μM PP2 or 1 μM piceatannol prior to treatment with 1 μg/ml PTx (FIG. 9C and FIG. 9D). Treated RBCs were tested for adhesion to HUVECs in intermittent flow conditions at different shear stresses. Data are presented as % adherent RBCs (FIG. 9B) or SSRBCs (FIG. 9C-FIG. 9E) at a shear stress of 2 dynes/cm^2. Each graph is representative of 3 different experiments. Error bars show standard error of the mean (SEM). *: p<0.001 compared to sham-treated RBCs; **: p<0.01 compared to PTx-treated RBCs.
Vaso-occlusion is associated with various types of physiological stress. β2-adrenergic receptors (β2AR) stimulation with catacholamines employs both Gas and &Gai (or Ga0) pathways. We first determined the Ga, Gas and/or Gai, in sickle cell regulating tyrosine kinase activation-mediated sickle cell adhesion to endothelial cells (FIG. 9A). Sickle cells adhered to some degree to endothelial cells under intermittent flow conditions at a shear stress of 2 dynes/cm^2. (FIGS. 9B-D). […] The selective Src-family kinase inhibitors, PP1 and PP2 (FIG. 9A), and the non-receptor tyrosine kinase p72^Syk inhibitor, piceatannol (FIG. 9A), inhibited the effect of PTx on sickle cell adhesion by 67±2.7%, 64±1.7% and 60 ±5.5%, respectively (p<0.01) (FIGS. 9C and 9D).

For the compound `Cc1ccc(-c2nn(C(C)(C)C)c3ncnc(N)c23)cc1` [PP1], the “PTx-increased p60-c-Src phosphorylation in sickle cells” value in assay [1] was “to levels below baseline phosphorylation”. The “phosphorylation of p60-c-Src, inhibitor effect” value in assay [2] is recorded as “inhibited”. The “inhibition of the effect of PTx on sickle cell adhesion” value in assay [3] turned out to be 67±2.7%.
